Patent US20130210860A1, “PROPHYLACTIC AND/OR THERAPEUTIC AGENT AGAINST LYMPHEDEMA” (KOWA CO., LTD., priority 2010, published 2013)

Tests used:
[1] = system: mouse model of abdominal wall lymphedema; experiment: Mouse model of abdominal wall lymphedema, thickness of the skin section (wild-type mouse); format: in vivo, C57BL/6J mouse; settings: for lymphedema (thickness of the skin): C57BL/6J mice, combined results of Experiments 2 and 3, pitavastatin 1 mg/kg/day, atorvastatin 2.5 or 1 mg/kg/day, pravastatin 1 mg/kg/day oral, after seven days, FIG. 2
Method: (§1) A male C57BL/6J mouse and a male eNOS-deficient mouse having a genetic background of C57BL/6J, both of which are eight weeks old at the time of surgery, each receives an intraperitoneal injection of Nembutal at 60 mg/kg, and further receives a subcutaneous injection of 1% Evans blue for identification of lymph nodes and lymphatic vessels in the dorsum of the right foot, the back of the hand, and the buttocks in an amount of 0.05 mL at each site. The abdominal hair was removed and the abdominal skin is incised in an open-door fashion so as to identify the inguinal lymph nodes, axillary lymph nodes, and lymphatic vessels connecting these lymph nodes in the right abdominal wall. The lymphatic vessels are ligated at two to three sites near the axillary lymph nodes, followed by excision of the axillary lymph nodes. Subsequently, the skin is sutured, whereby the surgery is completed. On the seventh day after the surgery, the abdominal skin is once again incised in an open-door fashion to collect the abdominal wall tissues. The mice were orally administered with the statins dissolved in distilled water (250 μl) from three days before to seven days after the surgery once a day. […] Methanol-fixed paraffin-embedded tissue sections were stained with hematoxylin, and the thickness of the skin section prepared from the upper inguinal area, which is the lowermost part of a mouse, was measured. Anatomically, interstitial fluid tends to be accumulated in this area.

[2] = system: mouse model of abdominal wall lymphedema; experiment: Mouse model of abdominal wall lymphedema, thickness of the skin section (eNOS-deficient mouse); format: in vivo, eNOS-deficient mouse having a genetic background of C57BL/6J; settings: Experiment 1, 10 mg/kg/day oral, once a day from three days before to seven days after the surgery, FIG. 1
Method: as §1, with “Anatomically, interstitial fluid tends to be accumulated in this area.” left out

[3] = system: mouse model of abdominal wall lymphedema; experiment: Visual examination by lymphangiography (Evans blue): leakage of lymph fluid and lymphatic flow in the lymphedema model; format: in vivo, C57BL/6J mouse; settings: C57BL/6J mice; administration method of Experiment 3 (1 mg/kg/day oral); lymphangiography on the seventh and fourteenth days after the surgery; FIG. 3
Method: A male C57BL/6J mouse and a male eNOS-deficient mouse having a genetic background of C57BL/6J, both of which are eight weeks old at the time of surgery, each receives an intraperitoneal injection of Nembutal at 60 mg/kg, and further receives a subcutaneous injection of 1% Evans blue for identification of lymph nodes and lymphatic vessels in the dorsum of the right foot, the back of the hand, and the buttocks in an amount of 0.05 mL at each site. The abdominal hair was removed and the abdominal skin is incised in an open-door fashion so as to identify the inguinal lymph nodes, axillary lymph nodes, and lymphatic vessels connecting these lymph nodes in the right abdominal wall. The lymphatic vessels are ligated at two to three sites near the axillary lymph nodes, followed by excision of the axillary lymph nodes. Subsequently, the skin is sutured, whereby the surgery is completed. […]
On the seventh and fourteenth days after the surgery, 0.05 μl of 1% Evans blue was locally injected into the inguinal lymph nodes for lymphangiography, whereby leakage of lymph fluid and lymphatic flow were evaluated.
Each statin was administered by the administration method employed in Experiment 3) and the leakage of lymph fluid and lymphatic flow were evaluated by lymphangiography of the lymph node tissues.

Compound | lymphedema (thickness of the skin) [1] | lymphedema (thickness of the skin section prepared from the upper inguinal area) ([1]; wild-type mouse, Experiment 1, 10 mg/kg/day oral, once a day from three days before to seven days after the surgery, FIG. 1) | lymphedema (thickness of the skin section prepared from the upper inguinal area) [2] | leakage of lymph fluid [3]
O=C(O)C[C@H](O)C[C@H](O)/C=C/c1c(C2CC2)nc2ccccc2c1-c1ccc(F)cc1 [pitavastatin, (3R,5S,6E)-7-[2-cyclopropyl-4-(4-fluorophenyl)-3-quinolyl]-3,5-dihydroxy-6-heptenoic acid] | markedly inhibit | markedly inhibited | markedly inhibited | markedly inhibited
CC[C@H](C)C(=O)O[C@H]1C[C@H](O)C=C2C=C[C@H](C)[C@H](CC[C@@H](O)C[C@@H](O)CC(=O)O)[C@H]21 [pravastatin, (+)-(3R,5R)-3,5-dihydroxy-7-[(1S,2S,6S,8S,8aR)-6-hydroxy-2-methyl-8-[(S)-2-methylbutyryloxy]-1,2,6,7,8,8a-hexahydro-1-naphthyl]heptanoic acid] | markedly inhibit |  |  | 
